ChEMBL document CHEMBL1201862, “PubChem BioAssay data set” (2004)
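Results reflect a 48-hour exposure of cells in 96-well plates to compound at five concentrations. Here, GI50 denotes the concentration required for 50% inhibition of growth.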 Activity calls are given as the source filed them. Cut-off read from the data, not from the text of the source: active = GI50 up to about 1.1 µM and inactive = higher.

Assays:
Assay in all cases: DTP human tumour cell line panel, 48 h
[1] = tested on: CAKI-1
[2] = tested on: HCT-116
[3] = tested on: SR
[4] = tested on: MDA-MB-231
[5] = tested on: LOX IMVI
[6] = tested on: U-251
[7] = tested on: HCC 2998
[8] = tested on: OVCAR-3
[9] = tested on: DU-145
[10] = tested on: OVCAR-8
[11] = tested on: M14
[12] = tested on: SW-620
[13] = tested on: OVCAR-4
[14] = tested on: SN12C
[15] = tested on: RPMI-8226
[16] = tested on: RXF 393
[17] = tested on: SNB-19
[18] = tested on: SF-295

SMILES	GI50 [1]	GI50 [2]	GI50 [3]	GI50 [4]	GI50 [5]	GI50 [6]	GI50 [7]	GI50 [8]	GI50 [9]	GI50 [10]	GI50 [11]	GI50 [12]	GI50 [13]	GI50 [14]	GI50 [15]	GI50 [16]	GI50 [17]	GI50 [18]
CC(C)N(CC(=O)O)CC(=O)O	> 100 µM (inactive)	> 100 µM (inactive)	> 100 µM (inactive)	> 100 µM (inactive)	> 100 µM (inactive)	> 100 µM (inactive)	> 100 µM (inactive)	> 100 µM (inactive)	> 100 µM (inactive)	> 100 µM (inactive)	> 100 µM (inactive)	> 100 µM (inactive)	> 100 µM (inactive)	> 100 µM (inactive)	> 100 µM (inactive)	> 100 µM (inactive)	> 100 µM (inactive)	> 100 µM (inactive)
CC(=O)OCC1OC(n2c(N)c(C#N)c(-c3cccc(Cl)c3)c(C#N)c2=S)C(OC(C)=O)C(OC(C)=O)C1OC(C)=O (stereo not drawn)	26.8 µM (inactive)	22.4 µM (inactive)	14.7 µM (inactive)	18.9 µM (inactive)	14.7 µM (inactive)	22.8 µM (inactive)	10.8 µM (inactive)	14.8 µM (inactive)	18.2 µM (inactive)	14.9 µM (inactive)	22.4 µM (inactive)	32.7 µM (inactive)	16.7 µM (inactive)	37.6 µM (inactive)	10.9 µM (inactive)	3.9 µM (inactive)	31.5 µM (inactive)	31.2 µM (inactive)
N#CSc1[nH]cnc1C(N)=O	> 44.4 µM (inactive)	60 µM (inactive)	< 0.01 µM (active)	55.7 µM (inactive)	41.3 µM (inactive)	> 95.9 µM (inactive)	> 100 µM (inactive)	> 100 µM (inactive)	> 100 µM (inactive)	> 100 µM (inactive)	62.7 µM (inactive)	90.6 µM (inactive)	> 100 µM (inactive)	27.9 µM (inactive)	4.22 µM (inactive)	> 100 µM (inactive)	> 100 µM (inactive)	> 100 µM (inactive)
c1ccc(CSc2ccccc2CN2CCN(Cc3ccccc3SCc3ccccc3)CCN(Cc3ccccc3SCc3ccccc3)CC2)cc1	3.21 µM (inactive)	0.646 µM (active)	2.16 µM (inactive)	1.51 µM (inactive)	1.33 µM (inactive)	0.869 µM (active)	1.09 µM (active)	0.466 µM (active)	2.94 µM (inactive)	1.22 µM (inactive)	1.55 µM (inactive)	2.38 µM (inactive)	1.45 µM (inactive)	1.72 µM (inactive)	0.384 µM (active)	1.77 µM (inactive)	1.92 µM (inactive)	1.04 µM (active)
COc1ccc(C(=O)/C=C/c2cc(O)c(O)cc2F)c(OC)c1	9.04 µM (inactive)	6.97 µM (inactive)	0.564 µM (active)	13.6 µM (inactive)	10.6 µM (inactive)	5.45 µM (inactive)	2.27 µM (inactive)	0.327 µM (active)	6.19 µM (inactive)	14.5 µM (inactive)	10.2 µM (inactive)	6.82 µM (inactive)	12.5 µM (inactive)	3.94 µM (inactive)	3.34 µM (inactive)	9.68 µM (inactive)	9.79 µM (inactive)	5.65 µM (inactive)
COC(=O)C(=O)C(C(=O)C(=O)Nc1ccc([N+](=O)[O-])cc1[N+](=O)[O-])c1nc2ccc(Cl)cc2nc1O (stereo not drawn)	17.5 µM (inactive)	> 100 µM (inactive)	> 100 µM (inactive)	50.2 µM (inactive)	> 100 µM (inactive)	> 100 µM (inactive)	> 100 µM (inactive)	> 100 µM (inactive)	> 100 µM (inactive)	> 100 µM (inactive)	> 100 µM (inactive)	> 100 µM (inactive)	27.1 µM (inactive)	> 100 µM (inactive)	> 100 µM (inactive)	65.3 µM (inactive)	> 100 µM (inactive)	> 100 µM (inactive)
Cc1cc([C@H](C#N)c2nc3ccccc3s2)nc(Cl)n1	4.51 µM (inactive)	3.22 µM (inactive)	1.31 µM (inactive)	3 µM (inactive)	2.89 µM (inactive)	2.86 µM (inactive)	4.86 µM (inactive)	4.84 µM (inactive)	23.7 µM (inactive)	3.18 µM (inactive)	5.57 µM (inactive)	3.04 µM (inactive)	5.82 µM (inactive)	3.42 µM (inactive)	2.3 µM (inactive)	7.4 µM (inactive)	6.7 µM (inactive)	15.5 µM (inactive)
O=c1c(Cl)nsnc1Cl	4.26 µM (inactive)	7.01 µM (inactive)	1.95 µM (inactive)	19.3 µM (inactive)	9.23 µM (inactive)	15.1 µM (inactive)	19.4 µM (inactive)	5.69 µM (inactive)	17.3 µM (inactive)	36.1 µM (inactive)	5.01 µM (inactive)	3.43 µM (inactive)	5.15 µM (inactive)	20.2 µM (inactive)	1.54 µM (inactive)	12.1 µM (inactive)	23.4 µM (inactive)	18.4 µM (inactive)
CC(C)=CCN1CC(C)C(=O)Nc2ccccc21 (stereo not drawn)	> 100 µM (inactive)	> 100 µM (inactive)	> 100 µM (inactive)	> 100 µM (inactive)	> 100 µM (inactive)	> 100 µM (inactive)	> 100 µM (inactive)	> 100 µM (inactive)	> 100 µM (inactive)	78.9 µM (inactive)	> 100 µM (inactive)	> 100 µM (inactive)	> 100 µM (inactive)	> 100 µM (inactive)	> 100 µM (inactive)	> 100 µM (inactive)	> 100 µM (inactive)	> 100 µM (inactive)
CC(C)CC(Nc1c(O)ccc2ccccc12)C(=O)O (stereo not drawn)	21.2 µM (inactive)	27.9 µM (inactive)	28.1 µM (inactive)	25.4 µM (inactive)	31.7 µM (inactive)	29.8 µM (inactive)	25.2 µM (inactive)	20.7 µM (inactive)	19.2 µM (inactive)	–	37.8 µM (inactive)	34.4 µM (inactive)	51.4 µM (inactive)	29.3 µM (inactive)	28.2 µM (inactive)	12.9 µM (inactive)	37.6 µM (inactive)	20.5 µM (inactive)
N=c1oc2ccc3ccccc3c2cc1C(N)=O	43.5 µM (inactive)	36.9 µM (inactive)	34 µM (inactive)	25.9 µM (inactive)	31.2 µM (inactive)	94.6 µM (inactive)	49.3 µM (inactive)	72.9 µM (inactive)	71 µM (inactive)	80.5 µM (inactive)	55.5 µM (inactive)	44 µM (inactive)	58.6 µM (inactive)	39.8 µM (inactive)	> 100 µM (inactive)	> 100 µM (inactive)	25.1 µM (inactive)	–
O=C1C(=C2SC(c3ccccc3)(c3ccccc3)c3ccccc32)C(=O)c2ccccc21	> 100 µM (inactive)	> 100 µM (inactive)	65.2 µM (inactive)	> 100 µM (inactive)	> 100 µM (inactive)	> 100 µM (inactive)	> 100 µM (inactive)	> 100 µM (inactive)	> 100 µM (inactive)	> 100 µM (inactive)	> 100 µM (inactive)	> 100 µM (inactive)	> 100 µM (inactive)	> 100 µM (inactive)	> 100 µM (inactive)	> 100 µM (inactive)	> 100 µM (inactive)	> 100 µM (inactive)
CC(=O)OCC1OC(n2c(C)c(/N=N/c3ccccc3)c(C)c(C#N)c2=S)C(OC(C)=O)C(OC(C)=O)C1OC(C)=O (stereo not drawn)	26.6 µM (inactive)	16.9 µM (inactive)	> 100 µM (inactive)	20.6 µM (inactive)	39.6 µM (inactive)	> 10 µM (inactive)	> 100 µM (inactive)	> 100 µM (inactive)	83.4 µM (inactive)	–	33.7 µM (inactive)	> 100 µM (inactive)	48.9 µM (inactive)	81.5 µM (inactive)	> 100 µM (inactive)	14.4 µM (inactive)	24.2 µM (inactive)	15 µM (inactive)
CC(C)COC(c1ccc2c(c1)OCO2)C(C)Br (stereo not drawn)	30.3 µM (inactive)	17.2 µM (inactive)	21.2 µM (inactive)	35.9 µM (inactive)	17.4 µM (inactive)	26.5 µM (inactive)	18.4 µM (inactive)	16.2 µM (inactive)	33.1 µM (inactive)	30.2 µM (inactive)	21.1 µM (inactive)	28.9 µM (inactive)	34.1 µM (inactive)	20.7 µM (inactive)	21.6 µM (inactive)	10.5 µM (inactive)	33.7 µM (inactive)	20 µM (inactive)
Cc1ccc(-c2nc3n(c2/C=N\N=C(N)N)CCS3)cc1	17.9 µM (inactive)	14.8 µM (inactive)	59 µM (inactive)	16.3 µM (inactive)	16.7 µM (inactive)	14.9 µM (inactive)	11.6 µM (inactive)	–	13.8 µM (inactive)	15.6 µM (inactive)	–	15.7 µM (inactive)	16.6 µM (inactive)	16.1 µM (inactive)	32.8 µM (inactive)	15.8 µM (inactive)	15.1 µM (inactive)	12.2 µM (inactive)
CN(C)c1ccc(C(=C2C=CC(=[N+](C)C)C=C2)c2c(O)c(S(=O)(=O)[O-])cc3cc(S(=O)(=O)O)ccc23)cc1	> 100 µM (inactive)	> 100 µM (inactive)	> 100 µM (inactive)	> 100 µM (inactive)	> 100 µM (inactive)	> 100 µM (inactive)	> 100 µM (inactive)	> 100 µM (inactive)	> 100 µM (inactive)	> 100 µM (inactive)	> 100 µM (inactive)	> 100 µM (inactive)	> 100 µM (inactive)	> 100 µM (inactive)	> 100 µM (inactive)	> 100 µM (inactive)	> 100 µM (inactive)	> 100 µM (inactive)
